The term MIC denotes the lowest concentration that inhibits growth of the organism.

Assay [1] concerns Escherichia coli. The experiment in a line: Antibacterial activity against Escherichia coli NCTC 12923 assessed as growth inhibition at 1 to 50 mg/mL after 24 hr. Type of assay: functional, organism-based.
In assay [2] the test system is Candida albicans. The experiment in a line: Antifungal activity against Candida albicans NCPF 3179 assessed as growth inhibition after 3 days. Type of assay: functional. The note with it: NCPF 3179, 72 h.
For assay [3], the system named is Bacillus subtilis. Nature of the assay: Antibacterial activity against Bacillus subtilis NCTC 10400 assessed as growth inhibition at 50 mg/mL after 24 hr. Type of assay: functional. The note with it: NCTC 10400, 24 h, read-out: IZ.
For assay [4], the system named is Escherichia coli. The experiment in a line: Antibacterial activity against Escherichia coli NCTC 12923 assessed as growth inhibition at 50 mg/mL after 24 hr. Type of assay: functional. To be noted: NCTC 12923, 24 h, read-out: IZ.
Assay [5] concerns Bacillus subtilis. Nature of the assay: Antibacterial activity against Bacillus subtilis NCTC 10400 assessed as growth inhibition after 24 hr. Type of assay: functional. To be noted: NCTC 10400, 24 h.
For assay [6], the system named is Staphylococcus aureus. The experiment in a line: Antibacterial activity against Staphylococcus aureus NCTC 10788 assessed as growth inhibition at 50 mg/mL after 24 hr. Type of assay: functional. To be noted: NCTC 10788, 24 h, read-out: IZ.
Assay [7] relates to Radical scavenging activity. Nature of the assay: Antioxidant activity assessed as DPPH radical scavenging activity at 1 mg/mL after 15 min UV-vis spectrophotometric analysis relative to control. Type of assay: functional. A general note: The DPPH test is a chemical assay of radical scavenging.
Assay [8] concerns Candida albicans. Nature of the assay: Antifungal activity against Candida albicans NCPF 3179 assessed as growth inhibition at 50 mg/mL after 3 days. Type of assay: functional. The note with it: NCPF 3179, 72 h, read-out: IZ.
Assay [9] deals with Escherichia coli. Nature of the assay: Antibacterial activity against Escherichia coli NCTC 12923 assessed as growth inhibition after 24 hr. Type of assay: functional. To be noted: NCTC 12923, 24 h.
Assay [10] concerns Staphylococcus aureus. The experiment in a line: Antibacterial activity against Staphylococcus aureus NCTC 10788 assessed as growth inhibition after 24 hr. Type of assay: functional. To be noted: NCTC 10788, 24 h.

Values after ≈ are worked out from the molar mass of the structure shown. Active and inactive are the calls of the source. No cut-off for these calls is given here.

Regarding `CS(=O)(=O)c1cccc(-c2ccc(C(=O)c3cc4cc(-c5cccc(S(C)(=O)=O)c5)ccc4o3)cc2)c1`, the “growth inhibition (GI)” value in assay [1] is “inactive”. In addition, the MIC in assay [2] and in assay [5] was 500 µg/mL (≈ 942 µM) in each case. Besides, the zone of inhibition at 50000 µg/mL in assay [3] is 16 mm; in [4], 0 mm; in assay [6], 0 mm; in [8], 6 mm. Besides, the Activity in assay [7] amounted to 12.3%.
On to `O=C(c1ccc(Br)cc1)c1cc2cc(Br)ccc2o1`, for which the minimal inhibitory concentration (MIC) in [2], in [9], in assay [5] and in assay [10] was 50 µg/mL (≈ 132 µM) throughout. Further, the zone of inhibition at 50000 µg/mL in [3] turned out to be 24 mm; in assay [4], 17 mm; in [6], 23 mm; in [8], 15 mm. Besides, the Activity in [7] came out at 11.7%.
For the compound `O=C(c1ccc(-c2ccccc2)cc1)c1cc2cc(-c3ccccc3)ccc2o1`, the “growth inhibition (GI)” value in assay [1] is “inactive”. The MIC in assay [2] stood at 10 µg/mL (≈ 26.7 µM); in [5], 10 µg/mL (≈ 26.7 µM); in [10], 1 µg/mL (≈ 2.67 µM). Further, the zone of inhibition at 50000 µg/mL in [3] worked out at 22 mm; in [4], 0 mm; in [6], 15 mm; in [8], 10 mm. For the same compound, the Activity in assay [7] worked out at 7.3%.
Regarding `C=Cc1ccc(-c2ccc(C(=O)c3cc4cc(-c5ccc(C=C)cc5)ccc4o3)cc2)cc1`, the “growth inhibition (GI)” value in assay [1] is “inactive”. Moreover, the MIC in assay [2] stood at 500 µg/mL (≈ 1170 µM); in assay [5], 50 µg/mL (≈ 117 µM); in assay [10] it was 250 µg/mL (≈ 586 µM). In addition, the zone of inhibition at 50000 µg/mL in assay [3] came to 16 mm; in [4] it was 0 mm; in [6] it was 10 mm; in [8], 6 mm. In assay [7], the Activity was 33.7%.

The record behind these values is ChEMBL document CHEMBL3045324, “5-phenyl-1-benzofuran-2-yl derivatives: synthesis, antimicrobial, and antioxidant activity” (2013).
